Measurements published in paper PMC10799058, “Exploring the mechanism and phytochemicals in Psoraleae Fructus-induced hepatotoxicity based on RNA-seq, in vitro screening and molecular docking” (Scientific Reports, 2024).
Converted amounts (≈) assume the structure as drawn. Like-named read-outs stand apart in the source and are kept apart here.

What was measured:
[1] = test system: AML-12 cells; assay: CCK-8 assay, toxic effects on AML-12 cells; assay type: cell-based; settings: for IC50: CCK-8, treatment 24 h, read-out: IC50 toward AML12 cells
Protocol: To uncover the potential hepatotoxic components, CCK-8 assay was performed toevaluate the toxic effects of 9 chemicals in PF on AML-12 cells. With the treatment […]
AML-12 cells were seeded into 96-well plates for 24 h until they visibly reached confluence. Then, AML-12 cells were treated with different concentrations of the nine chemical compounds in PF for 24 h. The multiple concentrations of each compound […]
wells were set up for each group. After treatment, AML-12 cells were washed with PBS buffer gently and incubated with DMEM/F12 medium containing 10% CCK-8 solution for 0.5-2 h. OD value was measured with live cell imaging system (Cytation 5,BioTek, USA) at 450 nm.
Cell viability (%) = [(OD value of the experimental group − OD value of the blank group)/ (OD value of the control group − OD value of the blank group)] ×

[2] = test system: AML-12 cells; assay: High-content screening of mitotoxic endpoints (MMP by TMRM, mitochondrial superoxide by MitoSOX Red); settings: 15 μmol/L, 24 h; for fluorescence intensity of Mitosox red (mitochondrial superoxide): versus control; for mitochondrial toxicity, overall ranking among 9 phytochemicals: MMP and mitochondrial superoxide taken together
Protocol: AML-12 cells were purchased from Procell (CL-0602, Wuhan, China) and cultured in cultured in DMEM/F12 medium (Gibco, Thermo Fisher Scientific, USA) with the supplement of 10% fetal bovine serum (FBS, Biological Industrials) and 1% penicillin/streptomycin (FG101-01, Transgene, China). AML-12 cells were maintained in a humidified incubator containing 5% CO2 at 37 °C.
AML-12 cells were seeded into 96-well plates and incubated at 37 °C in an atmosphere containing 5% CO2 for 12 h until they visibly reached confluence. After the cells were treated with the same concentration of each drug (15 μmol/L) for 24 h, the supernatants were removed from the cell plates and the fluorescent dyes were added. Hoechst 33,342 was applied to characterize cell counts and nuclear area. TMRM and MitoSOX™ Red were applied to characterize mitochondrial membrane potential (MMP) and mitochondrial superoxides, respectively. Then, the multi-parameter cytotoxicities were measured by a high content imaging system (Molecular Devices, Metaxpress) and subsequent data analysis was performed by Harmony 3.0 Software (Perkin Elmer, Waltham, MA, USA). Each experiment was assayed in triplicate wells and three independent replicates.

[3] = Solubility in DMEM/F12 culture medium; settings: aqueous buffer, kinetic from dmso stock

Molecule	IC50 [1]	fluorescence intensity of Mitosox red (mitochondrial superoxide) [2]	IC50 ([1]; Mus musculus, AML12)	mitochondrial toxicity, overall ranking among 9 phytochemicals [2]	toxicity to AML-12 cells [1]	solubility [3]
CC(C)=CCc1cc2c(cc1O)oc(=O)c1c3ccc(O)cc3oc21 [psoralidin, Psoralidin]	17.7 µM	prominently promoted	–	–	–	–
CC(C)=CCc1c(O)ccc(C(=O)/C=C/c2ccc(O)cc2)c1O [isobavachalcone]	–	prominently promoted	28.9 µM	most potent mitochondrial toxicities	–	–
Corylin	34.4 µM	–	–	–	–	–
O=c1ccc2ccc3occc3c2o1 [isopsoralen]	–	–	–	–	no obvious toxicity	800 µM (≈ 149 µg/mL)
C=C[C@@](C)(/C=C/c1ccc(O)cc1)CCC=C(C)C [bakuchiol]	–	prominently promoted	35 µM	most potent mitochondrial toxicities	–	–
CC(C)=CCc1cc2c(cc1O)O[C@H](c1ccc(O)cc1)CC2=O [bavachin, Bavachin]	–	prominently promoted	33.2 µM	most potent mitochondrial toxicities	–	–
bavachinin	60.2 µM	–	–	–	–	–
